Molecular target: Hepatocyte growth factor receptor (Homo sapiens, UniProt P08581)
Sequence (P08581 whole entry): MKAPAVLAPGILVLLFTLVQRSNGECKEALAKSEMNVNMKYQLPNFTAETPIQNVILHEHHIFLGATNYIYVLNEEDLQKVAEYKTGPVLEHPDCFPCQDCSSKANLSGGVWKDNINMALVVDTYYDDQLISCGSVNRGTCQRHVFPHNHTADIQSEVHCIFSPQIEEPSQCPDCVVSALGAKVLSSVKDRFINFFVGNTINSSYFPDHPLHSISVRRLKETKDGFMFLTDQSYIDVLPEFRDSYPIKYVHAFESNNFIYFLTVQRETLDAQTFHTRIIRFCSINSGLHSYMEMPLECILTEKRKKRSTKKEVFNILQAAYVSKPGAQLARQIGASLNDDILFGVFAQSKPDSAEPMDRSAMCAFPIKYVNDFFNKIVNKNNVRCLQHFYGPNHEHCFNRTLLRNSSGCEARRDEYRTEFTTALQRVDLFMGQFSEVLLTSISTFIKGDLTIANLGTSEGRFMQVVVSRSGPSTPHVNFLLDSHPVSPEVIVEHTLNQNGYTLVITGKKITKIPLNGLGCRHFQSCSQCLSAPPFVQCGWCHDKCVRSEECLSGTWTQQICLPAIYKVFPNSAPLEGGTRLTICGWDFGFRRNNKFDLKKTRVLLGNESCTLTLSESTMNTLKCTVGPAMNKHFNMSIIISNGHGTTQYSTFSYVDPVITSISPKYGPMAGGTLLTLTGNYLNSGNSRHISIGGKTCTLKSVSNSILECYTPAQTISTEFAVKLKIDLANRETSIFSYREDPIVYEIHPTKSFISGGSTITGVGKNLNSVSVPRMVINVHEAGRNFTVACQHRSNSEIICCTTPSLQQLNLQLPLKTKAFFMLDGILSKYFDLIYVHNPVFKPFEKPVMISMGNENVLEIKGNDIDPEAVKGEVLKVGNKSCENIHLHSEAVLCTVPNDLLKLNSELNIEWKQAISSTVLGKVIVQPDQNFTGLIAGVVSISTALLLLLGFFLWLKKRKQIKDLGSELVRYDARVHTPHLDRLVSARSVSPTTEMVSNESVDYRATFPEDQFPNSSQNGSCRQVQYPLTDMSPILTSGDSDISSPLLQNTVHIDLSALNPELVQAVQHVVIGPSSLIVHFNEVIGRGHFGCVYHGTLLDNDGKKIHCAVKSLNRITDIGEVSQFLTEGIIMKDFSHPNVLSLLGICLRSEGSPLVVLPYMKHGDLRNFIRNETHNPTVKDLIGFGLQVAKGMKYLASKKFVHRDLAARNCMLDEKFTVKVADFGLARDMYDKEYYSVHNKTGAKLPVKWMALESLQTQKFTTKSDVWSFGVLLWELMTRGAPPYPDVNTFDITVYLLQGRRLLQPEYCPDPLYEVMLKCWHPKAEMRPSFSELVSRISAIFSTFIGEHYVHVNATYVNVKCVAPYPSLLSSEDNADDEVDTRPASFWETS
Description: Inhibition of human c-MET

Compound	IC50 [µM]
CN1CCN(c2cnc3cccc(OCc4cccc([N+](=O)[O-])c4)c3c2)CC1	0.057
CN(CCN1CCN(N)CC1)Cc1ccc(-c2cc3nccc(Oc4ccc(NC(=O)N5CCN(c6ccccc6)C5=O)cc4F)c3s2)cc1	0.028
Cc1[nH]c(/C=C2\C(=O)Nc3ccc(S(=O)(=O)N(C)c4cccc(Cl)c4)cc32)c(C)c1CCCN1CCOCC1	0.17
CCn1ccnc1-c1cc2cccc(Oc3ccc(NC(=S)NC(=O)Cc4ccccc4)cc3F)c2s1	0.108
O=C(Cc1ccccc1)NC(=S)Nc1ccc(Oc2cccc3cc(-c4ncccn4)sc23)c(F)c1	0.181
CC(C)(C)OC(=O)c1cnc2ccn(S(=O)(=O)c3ccccc3[N+](=O)[O-])c2c1	0.02
O=C(Cc1ccc2c(c1)CCO2)NN=C1C(=O)Nc2cc(C(=O)NCN3CCOCC3)cc(Br)c21	0.0007
Cn1cc(CC(=O)N/N=C2\C(=O)Nc3ccc(C(=O)N4CCCC4CN4CCCC4)c(Cl)c32)ccc1=O (stereo unspecified)	4.15
CC(C(=O)NN=C1C(=O)Nc2ccc(C(=O)N3CCCC3CN3CCCC3)c(Cl)c21)c1ccc(F)cc1 (stereo unspecified)	0.43
CN(C)CCNC(=O)c1cc(Br)c2c(c1)NC(=O)/C2=N\NC(=O)Cc1ccc2c(c1)CCO2	0.1
COc1cc2nccc(Oc3ccc(NC(=O)NCCc4c(Cl)cccc4Cl)nc3)c2cc1OC	5.2
COc1cc2nccc(Oc3ccc(NC(=O)NCC(=O)N(C)C)nc3)c2cc1OC	9.64
O=C(Nc1ccc(Oc2ccnc3ccsc23)c(F)c1)NC1CC1c1ccccc1 (stereo unspecified)	6.6
O=C(Nc1ccc(Oc2ccnc3ccsc23)cc1)NC1CC1c1ccccc1 (stereo unspecified)	10
Cn1ccnc1-c1cc2nccc(Oc3ccc(NC(=O)NC(=O)c4c(F)cccc4F)nc3)c2s1	4.4
O=C(Cc1ccccc1)NC(=O)Nc1ccc(Oc2ccnc3ccsc23)cc1F	0.3

Compound	IC50 [µM]
Cc1[nH]c(/C=C2\C(=O)Nc3ccc(S(=O)(=O)N4CCc5ccccc54)cc32)c(C)c1C(=O)N1CCN(C)CC1	0.04
O=C(Cc1ccc2c(c1)CCO2)N/N=C1\C(=O)Nc2cc(C(=O)NCCCO)cc(Br)c21	0.065
O=C(Cc1ccccc1)NC(=S)Nc1ccc(Oc2ccnc3cc(C(=O)C4CCCO4)sc23)c(F)c1 (stereo unspecified)	0.13
Cn1cnc(-c2cc3cccc(Oc4ccc(NC(=S)NC(=O)Cc5ccccc5)cc4F)c3s2)c1	0.029
Cc1cc(CCN2CCCC2)c(C)c2c1N(CCN1CCCCC1)C(=O)/C2=N\NC(=O)C(C)c1ccc(O)cc1 (stereo unspecified)	0.2
Cc1cccc2c1NC(=O)/C2=N\NC(=O)Cc1ccc(O)c(Cl)c1	0.02
COc1cc2ncnc(Oc3ccc(NC(=O)NC(=O)c4c(F)cccc4F)nc3)c2cc1OC	0.43
COc1cc2c(Oc3ccc(-c4cnc(Cc5ccc(F)cc5)n(C)c4=O)cc3F)ccnc2cc1OCCCN1CCOCC1	0.017
COc1ccc2c(Oc3ccc(NC(=O)c4c(C)n(CC(C)(C)O)n(-c5ccccc5)c4=O)cc3F)ccnc2c1	0.0027
COc1cc2c(Oc3ccc(-c4cnc(Cc5ccccc5)n(C)c4=O)cc3F)ccnc2cc1OCCCN1CCN(C)CC1	0.0092
CCN1CCN(CCCOc2cc3nccc(Oc4ccc(-c5cnc(Cc6ccccc6)n(C)c5=O)cc4F)c3cc2OC)CC1	0.021
COc1cc2c(Oc3ccc(-c4cnc(Nc5ccc(F)cc5)n(C)c4=O)cc3F)ccnc2cc1OCCCN1CCOCC1	0.0049
COc1cc2nccc(Oc3ccc(-c4cnc(C(N)c5ccccc5)n(C)c4=O)cc3F)c2cc1OC (stereo unspecified)	0.072
COc1cc2nccc(Oc3ccc(-c4cnc(Nc5cccc(F)c5)n(C)c4=O)cc3F)c2cc1OC	0.038
COc1cc2c(Oc3ccc(-c4cnc(Cc5ccccc5)n(C)c4=O)cc3F)ccnc2cc1OCCCN1CCOCC1	0.017

Source: ChEMBL document CHEMBL1821609, “Combined SVM-based and docking-based virtual screening for retrieving novel inhibitors of c-Met” (Eur J Med Chem, 2011)
